Results as given in patent US20230356105A1, “TETRAAZADODECANE BASED CHELATING AGENTS FOR SEPARATION OF RARE EARTH ELEMENTS AND METHOD THEREFOR” (Ustav Organicke Chemie a Biochemie AV CR V.V.I., priority 2020, published 2023).
Several values for one entry are separate records, joined by “and”; a condition that tells them apart may be missing. Equal entries are not always repeated. Marks after values point to notes of the source that are not given here.

What was measured:
Format in all cases: physicochemical
[1] = Separation of Gd/Lu mixture by repeated precipitation using L1 (Example 13); conditions: for Precipitate concentration [mM] Gd / Precipitate concentration [mM] Lu: dissolved to 200 μL
Description: Stock solutions were pipetted into round-bottom 2 mL Eppendorf tubes as follows: • 1. 10 μL 100 mM aqueous solution of GdCl3 • 2. 10 μL 100 mM aqueous solution of LuCl3 • 3. 20 μL 100 mM aqueous solution of compound • 4. 33.3 μL 3 M MOPS buffer pH=7. • 5. 127.6 μL water.
Nine identical reaction mixtures were prepared and split into three groups A, B, C. Each tube was equipped with one PTFE-coated magnetic stir bar and sealed, and the mixture was stirred on a magnetic stirrer for 24 hours at room temperature. The tubes were then centrifuged and the supernatants were carefully pipetted out and transferred to a new set of tubes. Precipitates from group A were dissolved by addition of 100 μL 1 M HCl at room temperature over the course of 30 mins and then diluted to 200 μL by the addition of 100 μL water. Concentrations of Gd and Lu in the supernatants and in re-dissolved precipitates from group A were determined by ICP-OES. Precipitates from groups B and C were further processed as follows: the precipitates were dissolved by addition of 100 μL 1 M HCl at room temperature at pH 0 over the course of 30 mins, and the pH was then adjusted to approximately 7 by the addition of 50 μL 2 M NaOH, and the overall volume adjusted to 200 μL by the addition of water. The prepared mixtures were subjected to a second round of precipitation and were stirred on a magnetic stirrer for 24 hours at room temperature. Then, the tubes were again centrifuged and supernatants were carefully pipetted out and transferred to a new set of tubes. Samples from group B were treated identically to the samples from group A previously, and the Gd and Lu content in the supernatants and precipitates was determined by ICP-OES. Precipitates from group C were subjected to a third cycle of precipitation and followed by Gd and Lu content determination analogously to the procedures described above.

[2] = Separation of binary mixture of rare-earth metals by precipitation from solution using L1 (Example 7); conditions: supernatant
Description: Two series of reaction mixtures were prepared, where one rare-earth metal was held constant (Gd or Lu) while the other was a variable rare-earth metal element (except Pm). […] The well plate was sealed with transparent adhesive tape to prevent evaporation and was anchored to a shaker. The well-plate was shaken for 5 days at room temperature at 900 rpm.

[3] = Removal of additive from remaining solution after precipitation by ultrafiltration (Example 25); conditions: Ln chelates of L5
[4] = Separation of Nd/Pr/Tb/Dy mixture by precipitation using L5 and α-HIBA (Example 23)
Description: These aqueous reaction mixtures, each prepared to a total volume of 1.5 mL with the addition of water as necessary, were mixed by the use of a PTFE-coated stir bar on a magnetic stirrer. The cuvettes were sealed with transparent tape to prevent evaporation overnight. […] The supernatants were carefully pipetted out and transferred to a new set of tubes. […] The absolute concentration of the four metals in each supernatant and precipitate was determined by ICP-OES.

[5] = L5 + α-HIBA, MOPS pH=7, 18 hours, individual samples A, B, C
[6] = L5 + α-HIBA, MOPS pH=7, 18 hours, precipitate dissolved to 500 μL, individual samples A, B, C

SMILES: O=C(O)CN1CCN(CC(=O)O)CCN(Cc2ccccc2)CCN(CC(=O)O)CC1 [L1, 2,2′,2″-(10-benzyl-1,4,7,10-tetraazacyclododecane-1,4,7-triyl)triacetic Acid]
- Supernatant concentration [mM] Lu ([1]; group A, 1st precipitation): 4.28 mM and 4.35 mM and 4.12 mM and 4.36 mM
- Precipitate concentration [mM] Gd ([1]; group A, 1st precipitation): 4.24 mM and 4.38 mM and 4.22 mM and 4.12 mM
- Precipitate concentration [mM] Lu ([1]; group A, 1st precipitation): 0.99 mM and 1.08 mM and 0.98 mM and 0.90 mM
- Supernatant concentration [mM] Lu ([1]; group B, 2nd precipitation): 0.80 mM and 0.83 mM and 0.77 mM
- Precipitate concentration [mM] Gd ([1]; group B, 2nd precipitation): 3.33 mM and 3.40 mM and 3.70 mM and 3.48 mM
- Precipitate concentration [mM] Lu ([1]; group B, 2nd precipitation): 0.23 mM and 0.21 mM and 0.22 mM (2×)
- Supernatant concentration [mM] Lu ([1]; group C, 3rd precipitation): 0.24** mM and 0.17 mM and 0.16 mM and 0.19 mM
- Precipitate concentration [mM] Lu ([1]; group C, 3rd precipitation): 0.05** mM and 0.07 mM and 0.06 mM
- [mM] Gd ([2]; M1=Ce, M2=Gd): 0.149 mM
- [mM] M1 ([2]; M1=Ce, M2=Gd): 0.349 mM
- [mM] Lu ([2]; M1=Ce, M2=Lu): 5.174 mM
- [mM] M1 ([2]; M1=Ce, M2=Lu): 5.195 mM
- [mM] Gd ([2]; M1=Dy, M2=Gd): 0.196 mM
- [mM] M1 ([2]; M1=Dy, M2=Gd): 0.344 mM
- [mM] Lu ([2]; M1=Dy, M2=Lu): 5.252 mM
- [mM] M1 ([2]; M1=Dy, M2=Lu): 5.268 mM
- [mM] Gd ([2]; M1=Er, M2=Gd): 5.127 mM
- [mM] M1 ([2]; M1=Er, M2=Gd): 5.697 mM
- [mM] Lu ([2]; M1=Er, M2=Lu): 5.298 mM
- [mM] M1 ([2]; M1=Er, M2=Lu): 5.558 mM
- [mM] Gd ([2]; M1=Eu, M2=Gd): 0.141 mM
- [mM] M1 ([2]; M1=Eu, M2=Gd): 0.157 mM
- [mM] Lu ([2]; M1=Eu, M2=Lu): 6.000 mM
- [mM] M1 ([2]; M1=Eu, M2=Lu): 5.459 mM
- [mM] Gd ([2]; M1=Gd, M2=Gd): 0.208 mM
- [mM] M1 ([2]; M1=Gd, M2=Gd): 0.208 mM
- [mM] Lu ([2]; M1=Gd, M2=Lu): 3.875 mM
- [mM] M1 ([2]; M1=Gd, M2=Lu): 0.325 mM
- [mM] Gd ([2]; M1=Ho, M2=Gd): 0.219 mM
- [mM] M1 ([2]; M1=Ho, M2=Gd): 0.522 mM
- [mM] Lu ([2]; M1=Ho, M2=Lu): 5.643 mM
- [mM] M1 ([2]; M1=Ho, M2=Lu): 5.424 mM
- [mM] Gd ([2]; M1=La, M2=Gd): 0.134 mM
- [mM] M1 ([2]; M1=La, M2=Gd): 0.535 mM
- [mM] Lu ([2]; M1=La, M2=Lu): 5.188 mM
- [mM] M1 ([2]; M1=La, M2=Lu): 4.968 mM
- [mM] Gd ([2]; M1=Lu, M2=Gd): 0.291 mM
- [mM] M1 ([2]; M1=Lu, M2=Gd): 4.93 mM
- [mM] Lu ([2]; M1=Lu, M2=Lu): 5.403 mM
- [mM] M1 ([2]; M1=Lu, M2=Lu): 5.403 mM
- [mM] Gd ([2]; M1=Nd, M2=Gd): 0.169 mM
- [mM] M1 ([2]; M1=Nd, M2=Gd): 0.249 mM
- [mM] Lu ([2]; M1=Nd, M2=Lu): 4.301 mM
- [mM] M1 ([2]; M1=Nd, M2=Lu): 0.456 mM
- [mM] Gd ([2]; M1=Pr, M2=Gd): 0.161 mM
- [mM] M1 ([2]; M1=Pr, M2=Gd): 0.268 mM
- [mM] Lu ([2]; M1=Pr, M2=Lu): 5.165 mM
- [mM] M1 ([2]; M1=Pr, M2=Lu): 5.067 mM
- [mM] Gd ([2]; M1=Sc, M2=Gd): 0.295 mM
- [mM] M1 ([2]; M1=Sc, M2=Gd): 5.882 mM
- [mM] Lu ([2]; M1=Sc, M2=Lu): 4.903 mM
- [mM] M1 ([2]; M1=Sc, M2=Lu): 5.49 mM
- [mM] Gd ([2]; M1=Sm, M2=Gd): 0.165 mM
- [mM] M1 ([2]; M1=Sm, M2=Gd): 0.179 mM
- [mM] Lu ([2]; M1=Sm, M2=Lu): 4.229 mM
- [mM] M1 ([2]; M1=Sm, M2=Lu): 0.305 mM
- [mM] Gd ([2]; M1=Tb, M2=Gd): 0.162 mM
- [mM] M1 ([2]; M1=Tb, M2=Gd): 0.235 mM
- [mM] Lu ([2]; M1=Tb, M2=Lu): 5.094 mM
- [mM] M1 ([2]; M1=Tb, M2=Lu): 5.272 mM
- [mM] Gd ([2]; M1=Tm, M2=Gd): 0.239 mM
- [mM] M1 ([2]; M1=Tm, M2=Gd): 2.653 mM
- [mM] Lu ([2]; M1=Tm, M2=Lu): 5.423 mM
- [mM] M1 ([2]; M1=Tm, M2=Lu): 5.453 mM
- [mM] Gd ([2]; M1=Y, M2=Gd): 0.183 mM
- [mM] M1 ([2]; M1=Y, M2=Gd): 0.471 mM
- [mM] Lu ([2]; M1=Y, M2=Lu): 5.188 mM
- [mM] M1 ([2]; M1=Y, M2=Lu): 5.24 mM
- [mM] Gd ([2]; M1=Yb, M2=Gd): 0.279 mM
- [mM] M1 ([2]; M1=Yb, M2=Gd): 4.218 mM
- [mM] Lu ([2]; M1=Yb, M2=Lu): 5.148 mM
- [mM] M1 ([2]; M1=Yb, M2=Lu): 5.226 mM

SMILES: O=C(O)CN1CCN(CC(=O)O)CCN(Cc2cccc3ccccc23)CCN(CC(=O)O)CC1 [L5, 2,2′,2″-(10-(naphthalene-1-ylmethyl)-1,4,7,10-tetraazacyklododekane-1,4,7-triyl)triacetic acid]
- % of initial [chelate] in filtrate ([3]; additive acetate 76 mM): 0.8%
- % of initial [chelate] in filtrate ([3]; additive benzoic acid 76 mM): 0.3%
- % of initial [chelate] in filtrate ([3]; additive α-HIBA 30.4 mM): 0.4%
- supernatant concentration Dy [4, 5]: 1.73 and 1.38 and 1.65
- supernatant concentration Nd [4, 5]: 1.31 and 0.78 and 0.98
- supernatant concentration Pr [4, 5]: 0.32 and 0.20 and 0.24
- supernatant concentration Tb [4, 5]: 1.22 and 1.00 and 1.17
- precipitate concentration Dy [4, 6]: 1.04 and 0.95 and 1.05
- precipitate concentration Nd [4, 6]: 8.60 and 7.83 and 8.96
- precipitate concentration Pr [4, 6]: 2.30 and 2.08 and 2.40
- precipitate concentration Tb [4, 6]: 1.25 mM (2×) and 1.11 mM
- precipitate concentration Dy, average ([4]; average of samples A-C): 1.01
- precipitate concentration Nd, average ([4]; average of samples A-C): 8.46
- precipitate concentration Pr, average ([4]; average of samples A-C): 2.26
- precipitate concentration Tb, average ([4]; average of samples A-C): 1.20
- supernatant concentration Dy, average ([4]; average of samples A-C): 1.59
- supernatant concentration Nd, average ([4]; average of samples A-C): 1.03
- supernatant concentration Pr, average ([4]; average of samples A-C): 0.25
- supernatant concentration Tb, average ([4]; average of samples A-C): 1.13
- % comp of precipitate, Dy ([4]; percent composition of phase): 7.8%
- % comp of precipitate, Nd ([4]; percent composition of phase): 65.4%
- % comp of precipitate, Pr ([4]; percent composition of phase): 17.5%
- % comp of precipitate, Tb ([4]; percent composition of phase): 9.3%
- % comp of supernatant, Dy ([4]; percent composition of phase): 39.7%
- % comp of supernatant, Nd ([4]; percent composition of phase): 25.7%
- % comp of supernatant, Pr ([4]; percent composition of phase): 6.3%
- % comp of supernatant, Tb ([4]; percent composition of phase): 28.3%
